Experimental findings from US20180133190A1, “MONOACYLGLYCEROLS AND FAT-SOLUBLE NUTRIENTS FOR USE IN THE TREATMENT OF NUTRIENT DEFICIENCY FROM MALDIGESTION” (NESTEC S.A., priority 2013, published 2018) are described below.

The nature of data set [1]: clinical study: delivery of EPA under lipid maldigestion conditions induced by XENICAL (ORLISTAT). The class given is in vivo, humans. The protocol: This clinical study compared the efficacy of sn-1(3) MAG and fish oil (TAG) in delivering EPA in humans under lipid maldigestion conditions induced by XENICAL® (ORLISTAT). The comparison was tested in volunteers having a BMI of 37-40 kg/m2 and treated with XENICAL® (ORLISTAT) to induce lipid maldigestion or not treated with XENICAL® (ORLISTAT). The primary objective was to assess accretion of EPA in erythrocytes over 21 days when consumed as fish oil (TAG) or sn-1(3) MAG. The secondary objectives were to assess accretion of EPA in plasma over 21 days and also to assess the pharmacokinetics of EPA after an acute dose either in the form of sn-1(3) MAG or TAG (AUC in chylomicrons over 10 hours postprandial).

A short description of data set [2]: lipid maldigestion or malabsorption rat model (XENICAL-induced): EPA level in red blood cell lipids. The class given is in vivo, rats. As for the experimental part:
The concept was tested in a lipid maldigestion or malabsorption rat model. The maldigestion or malabsorption condition was obtained using XENICAL® (ORLISTAT), a pancreatic and gastric lipases inhibitor (tetrahydrolipstatin; see FIG. 7). Rats were fed during 21 days with long-chain polyunsaturated fatty acid (LC-PUFA) supplements containing mainly eicosapentaenoic (EPA) acid. Fish oil was used as a source of triacylglycerols, and different EPA glycerides were evaluated. XENICAL® (ORLISTAT) was given at a level sufficient to decrease lipid absorption by 40%. A group receiving fish oil without XENICAL® (ORLISTAT) was used as a positive control. At different time intervals (D3, D7, […]), the fatty acid profiles of red blood cell and plasma lipids were determined. At the end of the experiment, the fatty acid profiles of different tissues were determined. The main objective was to follow the level of EPA in red blood cell and plasma lipids. The main comparison evaluated was the difference in EPA level between the group receiving EPA-containing sn-1(3) MAG in combination with XENICAL® (ORLISTAT) and the positive control group (fish oil+XENICAL® (ORLISTAT)). […] This comparison corroborates the validity of the model.

As for `CC/C=C\C/C=C\C/C=C\C/C=C\C/C=C\CCCC(=O)OCC(O)CO` (stereo not shown) [sn-1(3) MAG that contained EPA, sn-1(3)-monoeicosapentaenoylglycerol], the “chronic effect: accretion of EPA in erythrocytes after 21 days” value in data set [1] (humans, with XENICAL (ORLISTAT), in comparison to fish oil and XENICAL, p=0.0001, FIG. 5) was “statistically significant”. The “chronic effect: accretion of EPA in plasma after 21 days” value in data set [1] (humans, with XENICAL (ORLISTAT), relative to fish oil and XENICAL, p=0.0003, FIG. 6) is “statistically significant”. Moreover, the “carrier for EPA compared with fish oil (TAG)” value in data set [1] (obese subjects treated with XENICAL (ORLISTAT)) is “better carrier for EPA than fish oil (TAG)”. Besides, the “incorporation of LC-PUFAs in tissue” value in data set [2] (rats, conditions of lipid maldigestion or malabsorption) was “the incorporation in tissue is improved”. For the same molecule, in data set [2] (rats, with XENICAL (ORLISTAT), day 7, FIG. 2), the “level of EPA incorporated in red blood cells vs fish oil group (without XENICAL)” value is recorded as “even higher than the fish oil group”. The “level of EPA incorporated in red blood cells vs fish oil + XENICAL (ORLISTAT) group” value in data set [2] (rats, with XENICAL (ORLISTAT), day 7, all P values lower than 0.05, FIG. 2) is given as “statistically higher”.
For the molecule `CCCCCCCCCCC[C@@H](C[C@@H]1OC(=O)[C@H]1CCCCCC)OC(=O)[C@H](CC(C)C)NC=O` [XENICAL® (ORLISTAT), tetrahydrolipstatin, reference compound], in data set [2] (rats fed fish oil with vs without XENICAL (ORLISTAT), day 7, FIG. 2), the “EPA incorporation in red blood cells, effect of lipase inhibitor” value was “decreases EPA incorporation in red blood cells”.
